ChEMBL document CHEMBL5608113, “Targeting of CAF-induced therapy resistance in CRC organoid-stroma co-cultures” (2024)

test system: Colon cancer organoid; test: Targeting of F14 CAF-induced therapy resistance in O23 CRC organoid-stroma co-culture. Cell viability is reported with Gefitinib.; assay type: functional, Homo sapiens; details: Homo sapiens, Concentration 10 uM; read-out: Cell Viability

Row | Compound | viability at 10 µM
1 | O=C([C@@H](Cc1cccc(C(F)(F)F)c1)NS(=O)(=O)c1cc(F)c2c(c1)CCNC2)N1CCCC1 | 55.1%
2 | Cn1c(=O)[nH]c2cc(N3C(=O)c4cccc5c(CCCO)ccc(c45)C3=O)ccc21 | 52.8%
3 | COc1cc(-c2cn([C@H]3CCc4c(F)cccc4N(CC(F)(F)F)C3=O)nn2)ccc1-n1cnc(C)c1 | 72%
4 | O=C(N[C@H]1CCCCC/C=C\C2C[C@@]2(C(=O)O)NC(=O)[C@@H]2C[C@@H](Oc3ccncc3)CN2C1=O)OC1CCCC1 (stereo not given in full) [BI 1675] | 51%
5 | Clc1cccc(-c2nnnn2Cc2cccnc2)c1Cl | 47.8%
6 | c1ccc(N2CCN(Cc3nc4ccccc4[nH]3)CC2)nc1 | 66.8%
7 | CN(C)CC#Cc1ccc(OCCCc2sc(N3CCc4cccc(C(=O)Nc5nc6ccccc6s5)c4C3)nc2C(=O)O)c(F)c1 [A-1155463] | 2.66%
8 | CN([C@@H]1CCc2c(CC(=O)O)c3ccccc3n2C1)S(=O)(=O)c1ccc(F)cc1 [MK-7246] | 46.3%
9 | COc1cc(Nc2nccc(-c3cnn4nc(OC)ccc34)n2)cc(C(F)(F)F)c1 | 19.5%
10 | CNCCN1CCC(c2cc(CN(C)C(=O)c3cccc(Oc4ccccc4)c3)ccn2)CC1 | 71.9%

test system: Colon cancer organoid; test: Targeting of F14 CAF-induced therapy resistance in O23 CRC organoid-stroma co-culture. Cell viability is reported with SN-38.; assay type: functional, Homo sapiens; details: Homo sapiens, Concentration 10 uM; read-out: Cell Viability

Row | Compound | viability at 10 µM
11 | O=C([C@@H](Cc1cccc(C(F)(F)F)c1)NS(=O)(=O)c1cc(F)c2c(c1)CCNC2)N1CCCC1 | 60.3%
12 | Cn1c(=O)[nH]c2cc(N3C(=O)c4cccc5c(CCCO)ccc(c45)C3=O)ccc21 | 69.9%
13 | COc1cc(-c2cn([C@H]3CCc4c(F)cccc4N(CC(F)(F)F)C3=O)nn2)ccc1-n1cnc(C)c1 | 69.6%
14 | O=C(N[C@H]1CCCCC/C=C\C2C[C@@]2(C(=O)O)NC(=O)[C@@H]2C[C@@H](Oc3ccncc3)CN2C1=O)OC1CCCC1 (stereo not given in full) [BI 1675] | 89.7%
15 | Clc1cccc(-c2nnnn2Cc2cccnc2)c1Cl | 77.1%
16 | c1ccc(N2CCN(Cc3nc4ccccc4[nH]3)CC2)nc1 | 106%
17 | CN(C)CC#Cc1ccc(OCCCc2sc(N3CCc4cccc(C(=O)Nc5nc6ccccc6s5)c4C3)nc2C(=O)O)c(F)c1 [A-1155463] | 0.449%
18 | CN([C@@H]1CCc2c(CC(=O)O)c3ccccc3n2C1)S(=O)(=O)c1ccc(F)cc1 [MK-7246] | 76.2%
19 | COc1cc(Nc2nccc(-c3cnn4nc(OC)ccc34)n2)cc(C(F)(F)F)c1 | 23.6%
20 | CNCCN1CCC(c2cc(CN(C)C(=O)c3cccc(Oc4ccccc4)c3)ccn2)CC1 | 84.5%

test system: Colon cancer organoid; test: Targeting of F14 CAF-induced therapy resistance in O14 CRC organoid-stroma co-culture. Cell viability is reported without Gefitinib.; assay type: functional, Homo sapiens; details: Homo sapiens, Concentration 10 uM; read-out: Cell Viability

Row | Compound | viability at 10 µM
21 | O=C([C@@H](Cc1cccc(C(F)(F)F)c1)NS(=O)(=O)c1cc(F)c2c(c1)CCNC2)N1CCCC1 | 114%
22 | Cn1c(=O)[nH]c2cc(N3C(=O)c4cccc5c(CCCO)ccc(c45)C3=O)ccc21 | 92.6%
23 | COc1cc(-c2cn([C@H]3CCc4c(F)cccc4N(CC(F)(F)F)C3=O)nn2)ccc1-n1cnc(C)c1 | 108%
24 | O=C(N[C@H]1CCCCC/C=C\C2C[C@@]2(C(=O)O)NC(=O)[C@@H]2C[C@@H](Oc3ccncc3)CN2C1=O)OC1CCCC1 (stereo not given in full) [BI 1675] | 102%
25 | Clc1cccc(-c2nnnn2Cc2cccnc2)c1Cl | 127%
26 | c1ccc(N2CCN(Cc3nc4ccccc4[nH]3)CC2)nc1 | 134%
27 | CN(C)CC#Cc1ccc(OCCCc2sc(N3CCc4cccc(C(=O)Nc5nc6ccccc6s5)c4C3)nc2C(=O)O)c(F)c1 [A-1155463] | 61.6%
28 | CN([C@@H]1CCc2c(CC(=O)O)c3ccccc3n2C1)S(=O)(=O)c1ccc(F)cc1 [MK-7246] | 88.6%
29 | COc1cc(Nc2nccc(-c3cnn4nc(OC)ccc34)n2)cc(C(F)(F)F)c1 | 3.97%
30 | CNCCN1CCC(c2cc(CN(C)C(=O)c3cccc(Oc4ccccc4)c3)ccn2)CC1 | 80.6%

test system: Colon cancer organoid; test: Targeting of F14 CAF-induced therapy resistance in O23 CRC organoid-stroma co-culture. Cell viability is reported without Gefitinib.; assay type: functional, Homo sapiens; details: Homo sapiens, Concentration 10 uM; read-out: Cell Viability

Row | Compound | viability at 10 µM
31 | O=C([C@@H](Cc1cccc(C(F)(F)F)c1)NS(=O)(=O)c1cc(F)c2c(c1)CCNC2)N1CCCC1 | 81.5%
32 | Cn1c(=O)[nH]c2cc(N3C(=O)c4cccc5c(CCCO)ccc(c45)C3=O)ccc21 | 132%
33 | COc1cc(-c2cn([C@H]3CCc4c(F)cccc4N(CC(F)(F)F)C3=O)nn2)ccc1-n1cnc(C)c1 | 86.7%
34 | O=C(N[C@H]1CCCCC/C=C\C2C[C@@]2(C(=O)O)NC(=O)[C@@H]2C[C@@H](Oc3ccncc3)CN2C1=O)OC1CCCC1 (stereo not given in full) [BI 1675] | 136%
35 | Clc1cccc(-c2nnnn2Cc2cccnc2)c1Cl | 106%
36 | c1ccc(N2CCN(Cc3nc4ccccc4[nH]3)CC2)nc1 | 163%
37 | CN(C)CC#Cc1ccc(OCCCc2sc(N3CCc4cccc(C(=O)Nc5nc6ccccc6s5)c4C3)nc2C(=O)O)c(F)c1 [A-1155463] | 5.72%
38 | CN([C@@H]1CCc2c(CC(=O)O)c3ccccc3n2C1)S(=O)(=O)c1ccc(F)cc1 [MK-7246] | 79.7%
39 | COc1cc(Nc2nccc(-c3cnn4nc(OC)ccc34)n2)cc(C(F)(F)F)c1 | 53.3%
40 | CNCCN1CCC(c2cc(CN(C)C(=O)c3cccc(Oc4ccccc4)c3)ccn2)CC1 | 118%

test system: Colon cancer organoid; test: Targeting of F14 CAF-induced therapy resistance in O14 CRC organoid-stroma co-culture. Cell viability is reported with Gefitinib.; assay type: functional, Homo sapiens; details: Homo sapiens, Concentration 10 uM; read-out: Cell Viability

Row | Compound | viability at 10 µM
41 | O=C([C@@H](Cc1cccc(C(F)(F)F)c1)NS(=O)(=O)c1cc(F)c2c(c1)CCNC2)N1CCCC1 | 65%
42 | Cn1c(=O)[nH]c2cc(N3C(=O)c4cccc5c(CCCO)ccc(c45)C3=O)ccc21 | 42.4%
43 | COc1cc(-c2cn([C@H]3CCc4c(F)cccc4N(CC(F)(F)F)C3=O)nn2)ccc1-n1cnc(C)c1 | 38.5%
44 | O=C(N[C@H]1CCCCC/C=C\C2C[C@@]2(C(=O)O)NC(=O)[C@@H]2C[C@@H](Oc3ccncc3)CN2C1=O)OC1CCCC1 (stereo not given in full) [BI 1675] | 62%
45 | Clc1cccc(-c2nnnn2Cc2cccnc2)c1Cl | 60.2%
46 | c1ccc(N2CCN(Cc3nc4ccccc4[nH]3)CC2)nc1 | 57.8%
47 | CN(C)CC#Cc1ccc(OCCCc2sc(N3CCc4cccc(C(=O)Nc5nc6ccccc6s5)c4C3)nc2C(=O)O)c(F)c1 [A-1155463] | 21.1%
48 | CN([C@@H]1CCc2c(CC(=O)O)c3ccccc3n2C1)S(=O)(=O)c1ccc(F)cc1 [MK-7246] | 43.4%
49 | COc1cc(Nc2nccc(-c3cnn4nc(OC)ccc34)n2)cc(C(F)(F)F)c1 | 3.12%
50 | CNCCN1CCC(c2cc(CN(C)C(=O)c3cccc(Oc4ccccc4)c3)ccn2)CC1 | 40.3%
